According to publication PMC11772769, “Selective cargo and membrane recognition by SNX17 regulates its interaction with Retriever” (EMBO Reports, 2024):
Changes are numbered by the printed parent chain. Where two headings read alike, the source gives them in different places. Values belong to the compound of their own block, whether it stands above or below them. Where no end group is shown, it is not given here.

Legend:
[1] = biological target: T1, VPS26C (Homo sapiens, UniProt O14972); experiment: Fluorescence anisotropy binding of 5-FAM SNX17CT-18 to VPS26C; conditions: 0.1 μM 5-FAM peptide, pH 7.5, 300 mM NaCl, 25 °C, two technical replicates (Fig. 3D)
T1 construct: His-Sumo3 (N, cleaved yes); made in house; host or cells: Escherichia coli BL21(DE3)
Method: (§1) Lyophilized peptides were resuspended in 100 mM Hepes pH 8.0 at 5 mg/ml and further diluted in the assay buffer (50 mM Hepes pH 7.5, 300 mM NaCl, and 1 mM DTT). […] The mixture was incubated at 25 °C for at least 30 min and then transferred to 96 Flat Black plates. Fluorescence anisotropy was measured at 25 °C using Spark 10M Plate Reader (Tecan) with a 485/20 excitation filter and a 535/35 emission filter. The dissociation constants were calculated in GraphPad Prism by nonlinear regression fitting of the experimental data to a one-site total binding model. The final KD measurement is the mean of at least two independent experiments.

[2] = biological target: T2, MBP-SNX17 WT (Homo sapiens, UniProt Q15036); experiment: Fluorescence anisotropy binding of 5-FAM peptides to MBP-SNX17 wild-type
T2 construct: M protein marker, R Retriever complex, FL full-length; His (N, cleaved yes); made in house; host or cells: Escherichia coli BL21(DE3)
T2 sequence (Q15036 1-470): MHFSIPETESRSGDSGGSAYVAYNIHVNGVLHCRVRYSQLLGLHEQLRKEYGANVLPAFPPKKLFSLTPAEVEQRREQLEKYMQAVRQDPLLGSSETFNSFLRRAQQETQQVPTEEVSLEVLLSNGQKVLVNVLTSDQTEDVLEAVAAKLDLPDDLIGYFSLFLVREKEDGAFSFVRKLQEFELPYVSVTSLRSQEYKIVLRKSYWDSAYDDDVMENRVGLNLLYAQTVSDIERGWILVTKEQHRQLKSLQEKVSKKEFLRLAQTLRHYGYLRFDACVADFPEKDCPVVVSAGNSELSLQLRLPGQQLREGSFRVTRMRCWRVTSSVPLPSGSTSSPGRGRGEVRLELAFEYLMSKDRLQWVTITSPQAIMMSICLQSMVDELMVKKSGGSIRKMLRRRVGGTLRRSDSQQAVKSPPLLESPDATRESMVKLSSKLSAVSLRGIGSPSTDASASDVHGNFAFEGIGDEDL
Method: as §1

[3] = biological target: T3, VPS29 (Homo sapiens, UniProt Q9UBQ0); experiment: Fluorescence anisotropy binding of 5-FAM SNX17CT-18 to VPS29; conditions: 0.1 μM 5-FAM peptide, pH 7.5, 300 mM NaCl, 25 °C, two technical replicates (Fig. 3D)
T3 construct: GST (N, cleaved yes); made in house; host or cells: Escherichia coli BL21(DE3)
Method: as §1

[4] = biological target: T4, VPS35L-VPS29 (Homo sapiens, UniProt Q7Z3J2+Q9UBQ0); experiment: Fluorescence anisotropy binding of 5-FAM SNX17CT-18 to VPS35L-VPS29; conditions: 0.1 μM 5-FAM peptide, pH 7.5, 300 mM NaCl, 25 °C, two technical replicates (Fig. 3D)
T4 construct: His (N, cleaved yes); made in house; host or cells: High Five insect cells (baculovirus)
Method: as §1

[5] = biological target: T5, SNX17FERM-CT (amino acids 109-470) (Homo sapiens, UniProt Q15036); experiment: Fluorescence anisotropy binding of 5-FAM cargo peptides to SNX17FERM-CT; conditions: read-out: KD SNX17FERM-CT
T5 construct: His-Sumo3 (N, cleaved yes); made in house; host or cells: Escherichia coli BL21(DE3)
T5 sequence (Q15036 109-470): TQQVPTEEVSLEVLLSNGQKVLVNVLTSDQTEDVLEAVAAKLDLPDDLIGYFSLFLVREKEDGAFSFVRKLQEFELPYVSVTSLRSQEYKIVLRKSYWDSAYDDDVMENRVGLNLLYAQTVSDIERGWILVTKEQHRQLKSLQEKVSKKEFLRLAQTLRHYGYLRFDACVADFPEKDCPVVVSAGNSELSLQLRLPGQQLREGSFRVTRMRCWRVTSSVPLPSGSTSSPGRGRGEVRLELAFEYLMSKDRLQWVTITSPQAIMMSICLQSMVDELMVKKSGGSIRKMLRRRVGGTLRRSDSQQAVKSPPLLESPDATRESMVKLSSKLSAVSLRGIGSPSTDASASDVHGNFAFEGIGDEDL
Method: as §1

[6] = biological target: T6, MBP-SNX17W321A (Homo sapiens, UniProt Q15036, W321A); experiment: Fluorescence anisotropy binding of 5-FAM peptides to MBP-SNX17 W321A
T6 construct: M protein marker, R Retriever complex, FL full-length; His (N, cleaved yes); made in house; host or cells: Escherichia coli BL21(DE3)
T6 sequence (Q15036 1-470 W321A): T2 sequence (Q15036 1-470) with W321A
Method: as §1

[7] = biological target: T7, MBP-SNX17V380D (Homo sapiens, UniProt Q15036, V380D); experiment: Fluorescence anisotropy binding of 5-FAM peptides to MBP-SNX17 V380D
T7 construct: M protein marker, R Retriever complex, FL full-length; His (N, cleaved yes); made in house; host or cells: Escherichia coli BL21(DE3)
T7 sequence (Q15036 1-470 V380D): T2 sequence (Q15036 1-470) with V380D
Method: as §1

[8] = biological target: MBP (Escherichia coli, UniProt P0AEX9); experiment: Fluorescence anisotropy, MBP negative control; type: binding
Method: as §1

[9] = biological target: T8, MBP-SNX17 L470G (Homo sapiens, UniProt Q15036, L470G); experiment: Fluorescence anisotropy binding of 5-FAM cargo peptides to MBP-SNX17 L470G
T8 construct: M protein marker, R Retriever complex, FL full-length; His (N, cleaved yes); made in house; host or cells: Escherichia coli BL21(DE3)
T8 sequence (Q15036 1-470 L470G): T2 sequence (Q15036 1-470) with L470G
Method: as §1, with “The peptides used for binding assays were synthesized with an N-terminal 5-Carboxyfluorescein (FAM) and HPLC purified (≥95%) by GenScript. Lyophilized” for “Lyophilized”

Compound: CC[C@H](C)[C@H](NC(=O)CNC(=O)[C@H](CCC(=O)O)NC(=O)[C@H](Cc1ccccc1)NC(=O)[C@H](C)NC(=O)[C@H](Cc1ccccc1)NC(=O)[C@H](CC(N)=O)NC(=O)CNC(=O)[C@H](Cc1c[nH]cn1)NC(=O)[C@@H](NC(=O)[C@H](CC(=O)O)NC(=O)[C@H](CO)NC(=O)[C@H](C)NC(=O)c1ccc2c(c1)C(=O)OC21c2ccc(O)cc2Oc2cc(O)ccc21)C(C)C)C(=O)NCC(=O)N[C@@H](CC(=O)O)C(=O)N[C@@H](CCC(=O)O)C(=O)N[C@@H](CC(=O)O)C(=O)N[C@@H](CC(C)C)C(=O)O [SNX17CT-18]
KD VPS26C [1]: no discernible binding | KD MBP-SNX17 WT ([2]; fluorescence anisotropy, 0.1 μM 5-FAM peptide, pH 7.5, 300 mM NaCl, 25 °C, one-site total binding, Bmax fixed at 240, mean ± SD of three biological replicates (Fig. 4E)): binds weakly | KD VPS29 [3]: no discernible binding | KD VPS35L-VPS29 [4]: weak interaction

Kd [5]: 72.5 µM
Compound: KWDTGENPIYKSAV [ITGB1 P-14-mer]

Compound: MNVEIGNPTYKMYE [LRP1 14-mer]
Kd [6]: > 32 µM | Kd ([6]; read-out: KD MBP-SNX17W321A, fluorescence anisotropy, 5-FAM peptide, Bmax fixed at 240, replicate Y2 (Fig. 4E source data)): > 32 µM | Kd ([7]; 0.1 μM 5-FAM peptide, pH 7.5, 300 mM NaCl, 25 °C, one-site total binding, Bmax fixed at 240, three biological replicates (Fig. 4E)): > 32 µM | Kd ([7]; 5-FAM peptide, Bmax fixed at 240, replicate Y1 (Fig. 4E source data), read-out: KD MBP-SNX17V380D): > 32 µM | Kd ([7]; 5-FAM peptide, Bmax fixed at 240, replicate Y2 (Fig. 4E source data), read-out: KD MBP-SNX17V380D): > 32 µM | Kd ([7]; 5-FAM peptide, Bmax fixed at 240, replicate Y3 (Fig. 4E source data), read-out: KD MBP-SNX17V380D): > 32 µM | Kd [2]: 3 µM | Kd [5]: 2.23 µM | Kd ([8]; 0.1 μM 5-FAM peptide, pH 7.5, 300 mM NaCl, 25 °C (Fig. EV3B), read-out: KD MBP (negative control)): > 32 µM | Kd ([8]; 5-FAM peptide, replicate Y1 (Fig. 4E source data), read-out: KD MBP): > 32 µM | Kd ([8]; 5-FAM peptide, replicate Y2 (Fig. 4E source data), read-out: KD MBP): > 32 µM | Kd ([8]; 5-FAM peptide, replicate Y3 (Fig. 4E source data), read-out: KD MBP): > 32 µM | Kd [9]: 2.8 ± 0.2 µM

Kd [5]: 19.1 µM
Compound: QQNGYENPTYKFFE [APP 14-mer]
